Assay results published in patent US20090318465A1, “METHOD FOR IDENTIFYING COMPOUNDS THAT ACT AS INSULIN-SENSITIZERS” (priority 2006, published 2009).
“Also recorded” adds a separate entry of the source.

Tests used:
[1] = system: dexamethasone treated insulin resistant 3T3-L1 adipocytes; test: Insulin resistance assay (IR assay), 14C-2-deoxyglucose uptake; format: cell-based, mouse; details: for % of Rosiglitazone (comparison with Rosiglitazone): test compound 10 μM/mL versus Rosiglitazone 0.1 μM; for Fold vehicle (fold activity over vehicle): test compound 10 μM/mL, glucose uptake with 200 nM insulin, vehicle = 1.0
Description: A suitable insulin resistance assay includes screening of compounds which act as insulin-sensitizers using chronically dexamethasone treated 3T3-L1 adipocytes as an in vitro model. This is a known model for studying insulin signaling and insulin resistance. Chronically dexamethasone treated 3T3-L1 adipocytes serve as a valid in vitro model of insulin resistance resembling diabetes patients.
In an embodiment, the method according to the present invention includes screening compounds identified as active in the phenotype-based assay against dexamethasone treated insulin resistant adipocytes. For example, the method can include applying actives from the insulin sensitivity assay at a concentration of 1-10 μM to the insulin resistant adipocytes for 1-4 days. The adipocytes were previously prepared for the assay by long term exposure to dexamethasone, for example, at 100 nM for about 24-48 hours.
The method can also include determining whether the compounds enhance glucose uptake in the insulin resistant adipocytes by more than 50% above that enhanced by insulin. The method can then include selecting compounds as active, if they caused 1.5 fold or more increase in glucose uptake compared to insulin treated adipocytes. Glucose uptake can be measured by any of a variety of known methods, such as measuring uptake of ^14C-labeled 2-deoxyglucose, a non metabolisable analogue of D-Glucose.
The assay was designed as in the reference, British Journal of Pharmacology, 130, 351-58, 2000, which is incorporated herein by reference for disclosure of the assay.
The solution of test compound (10 μM/mL) was prepared in DMSO.
Rosiglitazone (0.1 μM in DMSO) was used as standard.
Differentiation into adipocytes was induced by known methods as described below. (J. Biol. Chem., 260, 2646-2652, 1985, which is incorporated herein by reference for disclosure of the induction).
Culture medium containing […] 1-methyl-3-isobutylxanthine (IBMX), 0.25 μM dexamethasone, 5 μg/ml insulin (bovine/human), 10 mM HEPES buffer and fetal bovine serum (FBS) 10% by volume in Dulbecco's modified Eagle's medium (DMEM) was used for differentiation.
3T3 L1 fibroblasts were seeded in 24-well or 6-well plates at a density of 0.5-2×10^4 cells/well and were allowed to reach maximal confluency.
The confluent fibroblasts were exposed to culture medium for 2 days. After this period, fresh culture medium (DMEM) containing only insulin was used, 10% FBS was added and cultured for 4 days with change of medium every 2 days. After 7 days the cultures received DMEM containing 10% FBS with no exposure to insulin. By the end of 8-10 days, more than 95% of the cells have become differentiated into adipocytes.
The mature adipocytes were exposed to dexamethasone, 100 nM added in ethanol, in culture medium and incubated for 2 days. On the third day, solution of test compound was added along with 100 nM dexamethasone containing medium for 4 days with a change in medium after every 2 days. Vehicle control contained 1% v/v of DMSO. Rosiglitazone was used as a standard and was added at a concentration of 0.1 μM in DMSO, along with 100 nM dexamethasone containing medium for 4 days with a change in medium after every 2 days. After a total period of 6 days, the cells were processed for glucose uptake as follows.
The insulin resistant adipocytes were exposed to serum-free DMEM containing 0.1% bovine serum albumin for 3-4 hours at 37° C. in CO2 atmosphere. The test compound was also present during this period. After 3-4 hours, the medium was aspirated and replaced with Kreb's Ringer phosphate (KRP) buffer at pH 7.4 and with human/porcine insulin, 200 nM. The cells were incubated for 30 minutes at 37° C. At the end of 30 minutes, 0.05 or 0.1 μCi of ^14C-2-deoxyglucose was added to each well of either 24-well or 6-well plates respectively and was incubated for exactly 5 minutes. After exactly 5 minutes, the plates were transferred to ice trays and medium was rapidly aspirated. […]

[2] = system: genetically diabetic db/db BL/6J mice; test: Screening in db/db BL/6J mice, plasma glucose reduction; format: in vivo; details: 10 days
Protocol: In an embodiment, the method includes selecting 6-8 weeks old male db/db mice based on blood glucose levels determined after withholding feed for four hours. For example, the method can employ animals with plasma glucose levels in a suitable range, such as 300-500 mg/dl. The selected mice can be orally dosed with test (lead) compound, for example, in 0.5% carboxy methyl cellulose (CMC) vehicle at a suitable frequency and for a suitable time, such as twice daily for 10 consecutive days. This embodiment of the method can include obtaining blood on, for example, day 5 and day 10, after withholding feed for four hours, and determining plasma glucose levels. These levels can be determined using enzymatic methods (e.g., Diasys kit, Germany) in an autoanalyser. Lead compounds are considered to be in vivo actives if they produce statistically significant fall in plasma glucose on day 10 compared to mice treated with 0.5% CMC vehicle. Rosiglitazone can be used as a standard at 5 mg per kg (mpk) bid for comparison with test compounds.
The protocol was designed as in references. • 1.
The screening of compounds was based on their ability to reduce the plasma glucose levels in genetically diabetic db/db BL/6J mice.
Male db/db mice (obtained from the Animal House of Nicholas Piramal Research Centre, Goregaon, Mumbai, India) were used for this study (body weight in the range of 30-40 g and age is 6-8 weeks) and were kept eight per cage in individually ventilated cages at controlled temperature (22±1° C.) and humidity (45±5%). Food and water were provided ad libitum during their laboratory stay, except for four hours fasting prior to blood sample collection. 12 hours light and dark cycle was followed during the whole study period.
After 4 hours fasting blood samples were collected from mice. Mice showing plasma glucose levels between 300 to 500 mg/dl were divided in groups (8-10 per group) such that the mean plasma glucose levels and variation within the group, for each group, is nearly same. After grouping, mice in respective groups received treatment with 0.5% CMC vehicle, standard compound or test compounds for 10 days. Rosiglitazone was used as a standard.
After 4 hours fasting, mice were anaesthetized using isoflurane (inhalation anesthetic), and blood samples were collected through the retro orbital plexus. Collected blood samples were centrifuged at 7000 rpm for 10 minutes at 4° C.; Separated plasma was used for estimation of plasma glucose using diagnostic kits (Diasys, Germany). Plasma glucose levels of treated groups were normalized with control group using the following formula, which accounted for the changes in control group.

db/db mice = test: Evaluation of lipid levels (dyslipidemia) in db/db mice; format: in vivo; details: Rosiglitazone 5 mpk oral bid, 15 days
Protocol: Body weight was measured daily. On day 15, the animals were deprived of food for 4 hours after the last dose administration. Blood was collected at the end of the 4-hour period using heparinised capillaries by a retro-orbital puncture. Plasma samples were analyzed for, triglyceride and cholesterol, using the autoanalyser.
The assay was designed as in the reference, Metabolism, 49 (1), 22-31, 2000, the disclosure of which is incorporated by reference for the teaching of the assay.
Seven groups of male db/db mice (8 animals per group) were used. […] Body weight was measured daily. On day 15, the animals were deprived of food for 4 hours after the last dose administration. Blood was collected at the end of the 4-hour period using heparinised capillaries by a retro-orbital puncture. Plasma samples were analyzed for glucose, triglyceride, cholesterol, using the autoanalyser.

[3] = system: diet induced obese (DIO) mice; test: Evaluation of antiobesity, chronic study in diet induced obese mice; format: in vivo; details: 10 days, vs vehicle
Description: In an embodiment, the method includes selecting 17-18 week old male diet induced obese (DIO) mice, which were maintained on a high fat diet (D12451, Research Diets Inc, New Brunswick, N.J. 08901, USA, 45% kcal from fat), based on body weight. The selected mice can be dosed intraperitoneally with test (lead) compound, for example, in 0.5% CMC vehicle at a suitable frequency and for a suitable time, such as once daily for 10 consecutive days. This embodiment of the method can include recording body weight and food weight daily. Lead compounds are considered to be in vivo active if they produce statistically significant decrease in cumulative food intake for up to 1 day and a statistically significant decrease in cumulative body weight gain on day 10 as compared to mice treated with the 0.5% CMC vehicle. Sibutramine can be used as a standard at 3 mpk for comparison.
The assay was designed as in the reference, British Journal of Pharmacology, 132, 1898-1904, 2001, the disclosure of which is incorporated by reference for the teaching of the assay.
Male C57BI6/J mice (3-4 weeks of age) were housed in groups of 10 animals per cage in the animal facility. High fat diet (D12451 Research Diets Inc., New Brunswick, N.J. 08901, USA, 45% kcal from fat) and water was provided ad libitum for 14 weeks. After this period, the animals were housed individually in cages. The animals were weighed and separated into groups with similar body weight. They were acclimatised to the experimental procedures for 2 days. Animals were dosed intraperitoneally with test compound (200 mpk) or the standard (3 mpk) in 10 mL/kg of 0.5% CMC vehicle between 10:00 am-12:00 noon. After drug administration the animals were presented with a pre-weighed amount of food in the food cup. Weight of feed remaining in the cup and body weight were recorded daily just prior to dosing. The change in weight and cumulative food intake were computed.

| SMILES | % of Rosiglitazone (comparison with Rosiglitazone) [1] [%] | Fold vehicle (fold activity over vehicle) [1] | Normalization with control (plasma glucose reduction) ([2]; 100 mpk bid, oral, 4 h fasted) | also measured |
| --- | --- | --- | --- | --- |
| CC(=O)N1CCN(c2ccc(Oc3ncc(NC(=O)CCC(=O)O)cc3Cl)cc2)CC1 [Compound 7] | 27.5 ± 3.0 | 1.49 ± 0.05 | Inactive | – |
| CN(CCOc1ccc(CC2SC(=O)NC2=O)cc1)c1ccccn1 (stereo not drawn) [Rosiglitazone] | – | – | – | decrease in plasma triglyceride levels (db/db mice): 40%; reduction in cholesterol levels (db/db mice): 27% |
| CC(=O)N1CCN(c2ccc(Oc3ncc(NS(=O)(=O)c4ccc(Cl)cc4Cl)cc3Cl)cc2)CC1 [Compound 6, N-{6-[4-(4-Acetyl-piperazin-1-yl)-phenoxy]-5-chloro-pyridin-3-yl}-2,4-dichloro benzenesulfonamide] | 61.4 ± 3.15 | 2.10 ± 0.05 | 46.07 ± 4.55 | cumulative food intake ([3]; 200 mpk intraperitoneally, FIG. 4, 200 mg/kg): effective in reducing cumulative food intake; also recorded: significantly inhibited food intake; cumulative body weight gain ([3]; 200 mpk intraperitoneally, FIG. 5, 200 mg/kg): effective in reducing cumulative body weight gain; also recorded: inhibited body weight gain on all days |
| COc1ccc(S(=O)(=O)Nc2cnc(Oc3cnc4ccccc4c3)c(Cl)c2)cc1 [Compound 8, N-[5-Chloro-6-(quinolin-3-yloxy)-pyridine-3-yl]-4-methoxy-benzene sulfonamide] | 66.4 ± 5.2 | 2.19 ± 0.09 | 41.90 ± 3.84 | – |
| COC(Cc1ccc(OCCN(C)C(=O)OC(C)(C)C)cc1)C(=O)O (stereo not drawn) [Compound 2, 3-{4-[2-(tert-Butoxycarbonyl-methyl-amino)-ethoxy]-phenyl}-2-methoxy-propionic acid] | 105 ± 3.6 | 2.62 ± 0.05 | 45.14 ± 4.92 | – |
| CCOC(=O)CCN1Cc2cc(NCCN(C)c3nc4ccccc4o3)ccc2C1=O [Compound 4, 3-{5-[2-(Benzooxazol-2-yl-methyl-amino)-ethylamino]-1-oxo-1,3-dihydro-isoindol-2-yl}propionic acid ethyl ester] | 76.8 ± 12.4 | 1.88 ± 0.14 | – | Normalization with control (plasma glucose reduction) ([2]; 50 mpk bid): 24.99 ± 17.92 |
| CC(C)(COC(=O)COc1ccc(C(=O)CN2Cc3cc(C(N)=S)ccc3C2=O)cc1)NS(=O)(=O)c1cccnc1 [Compound 3, {4-[2-(1-Oxo-5-thiocarbamoyl-1,3-dihydro-isoindol-2-yl)-acetyl]-phenoxy}-aceticacid-2-methyl-2-(pyridine-3-sulfonylamino)-propyl ester] | 31.6 ± 6.2 | 1.48 ± 0.09 | – | Normalization with control (plasma glucose reduction) ([2]; 50 mpk od): Inactive |
| COC(=O)C(Cc1ccc(OCCN(C)C(=O)OC(C)(C)C)cc1)(OC)C(=O)OC [Compound 1, 2-{4-[2-(tert-Butoxycarbonyl-methyl-amino)-ethoxy]-benzyl}-2-methoxy-malonic acid dimethyl ether] | 72.5 ± 2.6 | 2.2 ± 0.18 | 42.93 ± 4.95 | – |
| CC(C)CC(N(C)C)C1(c2ccc(Cl)cc2)CCC1 (stereo not drawn) [Sibutramine, reference compound] | – | – | – | cumulative food intake ([3]; standard 3 mpk intraperitoneally, FIG. 4): significantly inhibited food intake; cumulative body weight gain ([3]; standard 3 mpk intraperitoneally, FIG. 5): inhibited body weight gain on all days |
